Test system: patients who have suffered from a myocardial infarction
Assay: clinical trial of 3.5 years in infarcted patients on standard therapy, post-infarction mortality versus control group
Type: in vivo, human
Conditions: added to standard therapy
Excerpt: The efficacy of the treatment, according to the invention, is, for instance, proven by the fact that a surprising and highly significant reduction in post-infarction mortality was observed by such treatment in a clinical trial that lasted for 3.5 years, with protocols substantially designed as follows: • 1 a “control” group received the standard therapy which is usually given to infarcted patients; • 2 a “treatment” group, besides the therapy that was given to the “control” group, received 85% EPA+DHA (1 g daily); • 3 a “treatment” group, besides the therapy that was given to the “control” group received vitamin E; and • 4 a “treatment” group, besides the therapy that was given to the control group, received vitamin E and 85% EPA+DHA (1 g daily). […] From the above clinical results, the person skilled in the art will appreciate that, the use of a pharmaceutical composition in accordance to the present invention is certainly useful in human therapy in preventing mortality in patients who have suffered from a myocardial infarction.

In the case of vitamin E, the “result on mortality as compared to the control group (in words)” value was “no significant results”.

Reference: patent US7462643B1, “Essential fatty acids in the prevention of cardiovascular events” (Pfizer Italia S.R.L., priority 1999, dated 2008)
